For one data set, the system named is small intestine. Kind of data set: Irradiation induced intestinal regeneration. Type of data set: in vivo. The conditions noted are these: gp130^F/F mice, AZD1480 30 mg/kg, 72 h after γ-irradiation (14 Gy). As to the method:
a Immunohistochemical analysis for the proliferation marker PCNA on sections of small intestines of wild-type (Wt), gp130^F/F (F/F), Stat3^+/−, gp130^F/F;Stat3^+/− (F/F Stat3^+/−), gp130^ΔStat/ΔStat (Δ/Δ) and gp130^ΔStat/+ (Δ/+) as well as of Wt and F/F mice treated with Jak2 kinase inhibitor AZD1480 (Jak2i; 30 mg/kg) 72 h after exposure to γ-irradiation. Scale bar=100 μm.
b Enumeration of intact crypts in cross sections from the proximal small intestine stained for PCNA obtained 72 h after exposure of mice of the indicated genotype to γ-irradiation. (*p≦0.04; n=3 mice).
Mice were irradiated with a single dose of 14 Gy of γ-irradiation (0.414 Gy/min) to determine regenerative potential of the small intestine as described (Ashton et al., 2010).

Data set [1] has as its system intestinal tumours. Kind of data set: Treatment of ApcMin mice with established intestinal tumours. Type of data set: in vivo. Conditions: Apc^Min mice treated daily 30 mg/kg from 6 to 12 weeks of age; increased in vehicle cohort. An excerpt: (§1) Hematoxilin and Eosin-stained sections were scanned using an Aperio ScanScope XT (Aperio, USA) pathology slide scanner with a 20x PlanApo NA0.6 objective and areas of interest were extracted using Aperio ImageScope software v11.1.2.760. The area of individual tumors was outlined using MetaMorph v7.7.7 and standardized against the entire length of the colon section as described (Barker et al., 2009).

The test system of another data set is SW480^APC cells. Briefly: p-STAT3 immunofluorescence and SOCS3 RT-qPCR in SW480APC cells. Type of data set: cell-based, human. As to the method: d Immunofluorescence staining for β-CATENIN or tyrosine-705 phosphorylated STAT3 in an isogenic pair of SW480 cells grown in the presence of 1 μM AZD1480 (Jak2i) or vehicle. SW480 cells are APC mutant and lack expression of functional APC protein, while SW480^APC cells have been reconstituted to express wild-type APC. Scale bar=20 μm.
g RT-qPCR expression analysis for the STAT3 target gene SOCS3 in SW480 and SW480^APC CRC cells grown for 10 days under colony forming conditions in soft agar in the presence of the indicated treatment. Expression in the vehicle-treated cultures was arbitrarily set as 1. (*p≦0.04; triplicate cultures in each of two repeats).
SW480 and SW480^APC cells (Faux et al., 2004) were seeded in 2 ml of RPMI media supplemented with 10% FBS and 1% penicillin/streptomycin in 35 mm culture dishes at a density of 2×10^5 cells per dish. Three days later cultures were exposed to AZD1480 (1 μM) for 15 min. Co-immunofluorescence was then performed with antibodies to rabbit phospho-Stat3 (Tyr705, Santa Cruz #9134s, 1:200 dilution) and mouse β-catenin (Transduction Laboratories, 1:400). Colony formation assays of SW480 cells in soft agar were performed as described (Faux et al., 2004) in the presence of either AZD1480, (1 μM), the Stat3 inhibitor S3I-201 (Biovision, 50 μM) or recombinant human IL11 (Genetics Institute, 10 ng/ml). All experiments were performed in triplicates and repeated at least once. Vehicle was methylcellulose.
Gene expression analysis by RT-qPCR was performed using the SybrGreen method (ABI) as described previously (Phesse et al., 2008). Fold change was calculated using the 2^−ΔΔCT method (Livak et al., 2001). Protein expression was analysed by Western blot by transferring SDS-PAGE separated protein lysates to nitrocellulose membrane and blocked either in 5% non-fat milk powder and probed with antibodies detecting p16 (Santa Cruz; #sc-467), Bmi1 (Millipore #[…]), Actin (Sigma; #A2066) or Gapdh (Santa Cruz; #sc-69778). All antibodies were diluted 1:1000 in BSA or non-fat milk powder and incubations were performed overnight.

The next data set deals with intestinal epithelium. Briefly: Homeostatic turnover of the intestinal epithelium and body weight in treated mice. Type of data set: in vivo. As to the method:
a qRT-PCR expression analysis for Wnt target genes from RNA extracted from AZD1480 or vehicle-treated BALB/c-nude hosts used for the xenograft experiments (*p<0.04, n≧5 mice). b Immunohistochemical analysis of cell proliferation (BrdU), goblet cells (Periodic Acid/Schiff, PAS) and Paneth cells ([…]) or vehicle Control. Scale bar 50 μm. c Weight of BALB/c-nude mice treated with either vehicle or AZD1480 (30 mg/kg, daily) between days 5 and 21 of xenograft experiment (n=8).

Data set [2] relates to intestinal tumours. Briefly: Intestinal tumour burden after tamoxifen-induced conditional Apc deletion in Lgr5CreERT2;Apcfl/fl mice. Conditions: tamoxifen-treated Lgr5^CreERT2;Apc^fl/fl mice, prophylactic daily AZD1480 30 mg/kg, 5 weeks. It is filed as in vivo. As to the method:
e Quantification of intestinal tumour burden of mice using the Metamorph analysis tool (Barker et al., 2009) after tamoxifen-induced conditional Apc deletion in adult Lgr5^CreERT2;Apc^fl/fl mice that also received daily administration of AZD1480 (30 mg/kg) or vehicle during this time. (*p≦0.04; n=3 mice).
d Intestinal tumour burden 5 weeks after tamoxifen-induced conditional Apc deletion in adult Lgr5^CreERT2;Apc^fl/fl mice that also received daily administration of AZD1480 (Jak2i; 30 mg/kg) or vehicle during this time. Higher magnifications of the boxed areas are provided and arrows point to tubular adenomas whilst arrowheads point to micro-adenomas. Scale bars=1 mm.
10 week old Lgr5CreERT2;Apcfl/fl mice received four i.p injections with tamoxifen (10 mg/ml; 300 ul, 200 ul, 200 ul, 200 ul) over four consecutive days. Three days after the last injection, mice received daily oral gavages with either vehicle (tap water, pH 2.0) or CYT387 (30 mg/kg) for four weeks. Regime was 5 days treatment followed by 2 days off treatment.
as §1

The test system of another data set is RKO cells. Briefly: RKO tumor xenografts. Type of data set: in vivo. The conditions noted are these: RKO (low Wnt signaling), BALB/c nude mice, daily gavage 30 mg/kg from day 7. As to the method: c, d Tumour xenograft burden in BALB/c nude mice injected s.c. with DLD1 cells or RKO cells in PBS and receiving daily gavage with AZD1480 (30 mg/kg) or vehicle starting on the 7th day after cell inoculation. (*p≦0.0004; two sided t-test; n=8).

Setting [3] is: mice treated for 3 weeks, 30 mg/kg daily, vs vehicle.

With `Cc1cc(Nc2nc(N[C@@H](C)c3ncc(F)cn3)ncc2Cl)n[nH]1` [AZD1480], the intestinal regeneration result with small intestine is on record as “impaired”. Moreover, in the data set with intestinal tumours [1], the total tumour area entry is given as “remained remarkably constant” and the tumour number result is recorded as “remained remarkably constant”. In the data set on SW480^APC cells (1 μM AZD1480), the “accumulation of activated (phosphorylated) p-STAT3” value was “reduced accumulation”. Besides, the SOCS3 expression entry in the data set with SW480^APC cells (RT-qPCR, AZD1480 1 μM, IL11 10 ng/ml) is given as “reduced SOCS3 expression”. The body weight entry in the data set with intestinal epithelium (BALB/c-nude mice, 30 mg/kg daily, days 5 to 21 of xenograft experiment) is on record as “did not affect body weight”. Moreover, in the data set with intestinal epithelium (BALB/c-nude xenograft hosts, qRT-PCR), the “intestinal expression of prototypical Wnt target genes” value was “remained unaffected”. For the same compound, in the data set with intestinal epithelium (setting [3]), the “proportion of BrDU-positive proliferating intestinal epithelium cells” value is on record as “no differences”, the “proportion of PAS-staining goblet cells” value was “no differences” and the “proportion of lysozyme-positive Paneth cells” value was “no differences”. Also, the “growth and de novo tumour formation” value in the data set with intestinal tumours [2] was “profoundly reduced”. Moreover, the xenograft tumor growth entry with RKO cells is on record as “did not result in reduced tumor growth”.
